Measurements as given in patent US20140121100A1, “COMPOSITIONS AND METHODS FOR ENHANCING PLANT GROWTH” (NOVOZYMES BIOAG A/S, priority 2012, published 2014).
Like-named read-outs stand apart in the source and are kept apart here.

Legend:
soybean = soybean roots; seed treatment; petriplates, dark, 24° C., 7 days
Description: (§1) Seeds of chickpea, cotton, pinto bean and soybean were treated according to the protocols of Example 1. One day after seed treatment, 10 seeds of each crop variety were plated in 150 mm×15 mm polystyrene petriplates (Fisherband) on 5⅜″ germination paper circle (Anchor Paper Co., Saint Paul, Mn) moistened with 12 ml distilled water. Four petriplates were prepared per treatment as 4 replicates. Petri plates were then placed in the dark in under-counter cabinets in the lab at 24° C. for 7 days. After 7 days, seedlings were removed from the cabinets, exposed to light, and their main roots severed and measured for various root parameters with WinRhizo root scanner (Regent Instruments Inc., WinRhizo Pro 2007). For all statistical analysis, student t-test was applied using JMPv.9 statistical software.

chickpea = chickpea roots; seed treatment; petriplates, dark, 24° C., 7 days
Description: as §1

corn seedling growth [1] = conditions: for Plant root dry weight / Plant shoot dry weight / Total plant dry weight / Chlorophyll content: 2 weeks after; for Chlorophyll content: SPAD chlorophyll meter; for Plant height: one wk after (8 days after planting)
Description: In a clear plastic bag (25 cm×25 cm), 100 gram seeds were treated with 1 ml of water (as control) and 1 mL of the 100, 200, and 500 mg/L treatment solutions separately and shaken vigorously. One day following treatment, seeds were planted in 6″ plastic pots containing sand:perlite 1:1 mix. There were 10 pots/treatment; each pot being a replicate. Plant height was measured 8 days after planting. Plant leaf greenness and final harvest were made 2 weeks after planting. Plant leaf greenness was measured using a SPAD chlorophyll meter (Spectrum Technology, USA).

corn = conditions: GSH 100 mg/L seed treatment; petriplates, dark, 24° C., 7 days
Description: as §1, with “Instead” for “Seeds”, “growing the seeds in a greenhouse, the seeds” for “chickpea, cotton, pinto bean and soybean”, “grown” for “treated according to the protocols of Example 1. One day after seed treatment, 10 seeds of each crop variety were plated”, “[…]” for “150”

corn seedling growth [2] = assay: Effect of GSH and LCO on corn seedling growth (greenhouse pots, WinRhizo); assay type: in vivo; conditions: seed treatment (LCO 10^−8M), harvested after 2 weeks
Description: LCO stock solution was prepared by dissolving LCO in 50:50 ethanol/water solvent. Seeds were then treated according to the protocols of Example 1. Seeds were planted 1 day after treatment in greenhouse under artificial lighting in 5'' plastic pots containing 1:1 sand/perlite mix. […] Plants were allowed to grow for 2 weeks and then harvested. A non-destructive harvest was made by washing sand/perlite soil mix under running tap water. After cleaning, each plant was placed on a clear plexiglass-tray containing enough water to spread the roots in liquid. The tray was then placed on the WinRhizo root scanner (Regent Instruments Inc., WinRhizo Pro 2007) for measurement.

N[C@@H](CCC(=O)N[C@@H](CS)C(=O)NCC(=O)O)C(=O)O [GSH, glutathione]
Length (soybean): 146.373a cm
Surface area (soybean): 25.691a cm^2
Length (chickpea): 94.671a cm
Surface area (chickpea): 23.142a cm^2
Plant root dry weight (corn seedling growth [1]; GSH 100 mg/L seed treatment): 0.244a mg
Plant shoot dry weight (corn seedling growth [1]; GSH 100 mg/L seed treatment): 0.3111ab mg
Total plant dry weight (corn seedling growth [1]; GSH 100 mg/L seed treatment): 0.555a mg
Chlorophyll content (corn seedling growth [1]; GSH 100 mg/L seed treatment): 27.93a
Plant height (corn seedling growth [1]; GSH 100 mg/L seed treatment): 12.07a cm
Plant root dry weight (corn seedling growth [1]; GSH 200 mg/L seed treatment): 0.231ab mg
Plant shoot dry weight (corn seedling growth [1]; GSH 200 mg/L seed treatment): 0.3116ab mg
Total plant dry weight (corn seedling growth [1]; GSH 200 mg/L seed treatment): 0.542a mg
Chlorophyll content (corn seedling growth [1]; GSH 200 mg/L seed treatment): 27.55a
Plant height (corn seedling growth [1]; GSH 200 mg/L seed treatment): 11.91a cm
Plant root dry weight (corn seedling growth [1]; GSH 500 mg/L seed treatment): 0.266b mg
Plant shoot dry weight (corn seedling growth [1]; GSH 500 mg/L seed treatment): 0.339a mg
Total plant dry weight (corn seedling growth [1]; GSH 500 mg/L seed treatment): 0.565a mg
Chlorophyll content (corn seedling growth [1]; GSH 500 mg/L seed treatment): 27.83a
Plant height (corn seedling growth [1]; GSH 500 mg/L seed treatment): 11.66ab cm
Length, Total (corn): 21.890a* cm
Volume, Total (corn): 0.150a* cm^3
Coleoptile Length (corn seedling growth [2]): 9.814b cm
Coleoptile Surface area (corn seedling growth [2]): 1.789b cm^2
Coleoptile Volume (corn seedling growth [2]): 0.236b cm^2
Root Diameter (corn seedling growth [2]): 0.653a mm
Root Length (corn seedling growth [2]): 150.89a cm
Root Surface area (corn seedling growth [2]): 30.47a cm^2
Root Volume (corn seedling growth [2]): 0.494a cm^2
